The results in this text go back to patent US9982005B2, “Macrolides and methods of their preparation and use” (President and Fellows of Harvard College, priority 2013, dated 2018).

SMILES strings stand for the structures. ≈ marks a conversion by molar mass, not a printed value. Read-outs that look alike come from different tables or passages of the source.

For series [1] the following is noted: ester bond.
For series [2], the system named is SA101 S. aureus ATCC29213. The series is described as follows: broth dilution MIC, S. aureus SA101. The format is cell-based. The note with it: Staphylococcus aureus, ATCC29213, SA101 S. aureus ATCC29213; read-out: MIC. The procedure, abridged: (§1)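 MICs were determined by broth dilution following CLSI standard procedures. Azithromycin served as the control macrolide.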
On the technique in general: Broth dilution looks for growth in wells or tubes with falling amounts of substance.

For series [3], the system named is SA183 S. aureus ermA positive msrA unknown. Put plainly: broth dilution MIC, S. aureus SA183. Type of series: cell-based. To be noted: Staphylococcus aureus. In outline:
as §1

Series [4] deals with SA418 S. aureus ermA negative msrA positive. The series is described as follows: broth dilution MIC, S. aureus SA418. The format is cell-based. The note with it: Staphylococcus aureus. The procedure, abridged:
as §1

The subject of series [5] is SA506 S. aureus ermA positive msrA unknown. The series is described as follows: broth dilution MIC, S. aureus SA506. The format is cell-based. The note with it: Staphylococcus aureus. In outline:
as §1

Series [6] deals with SA557 S. aureus ermA unknown msrA positive. The series is described as follows: broth dilution MIC, S. aureus SA557. Type of series: cell-based. To be noted: Staphylococcus aureus; SA557 S. aureus ermA unknown msrA positive; read-out: MIC. The procedure, abridged:
as §1

Series [7] concerns SA1707 S. aureus ermA negative msrA positive. The series is described as follows: broth dilution MIC, S. aureus SA1707. The format is cell-based. The note with it: Staphylococcus aureus. In outline: as §1
The test system of series [8] is SA1708 S. aureus ermA positive msrA negative. The series is described as follows: broth dilution MIC, S. aureus SA1708. The note with it: Staphylococcus aureus. The format is cell-based. In outline:
as §1

Series [9] has as its system Spn 106 S. pneumonia ATCC49619. Put plainly: broth dilution MIC, S. pneumoniae Spn 106. The format is cell-based. The note with it: Streptococcus pneumoniae, ATCC49619. In outline: as §1
For series [10], the system named is Spn160 S. pneumoniae ermB unknown mefA positive. Put plainly: broth dilution MIC, S. pneumoniae Spn160. The format is cell-based. To be noted: Streptococcus pneumoniae; Spn160 S. pneumoniae ermB unknown mefA positive; read-out: MIC. The procedure, abridged:
as §1

For series [11], the system named is Spn1509 S. pneumoniae ermB positive mefA negative. Put plainly: broth dilution MIC, S. pneumoniae Spn1509. Type of series: cell-based. The note with it: Streptococcus pneumoniae. The procedure, abridged:
as §1

In series [12] the test system is Spn1533 S. pneumoniae ermB positive mefA positive. The series is described as follows: broth dilution MIC, S. pneumoniae Spn1533. Type of series: cell-based. To be noted: Streptococcus pneumoniae. In outline:
as §1

For series [13], the system named is Spn1537 S. pneumoniae ermB positive mefA positive. Put plainly: broth dilution MIC, S. pneumoniae Spn1537. The format is cell-based. To be noted: Streptococcus pneumoniae. The procedure, abridged: as §1
Series [14] deals with Spn1427 S. pneumoniae ermB positive mefA negative. The series is described as follows: broth dilution MIC, S. pneumoniae Spn1427. Type of series: cell-based. The note with it: Streptococcus pneumoniae. In outline:
as §1

Series [15] relates to HI175 H. influenzae ATCC49247. Put plainly: broth dilution MIC, H. influenzae HI175. Type of series: cell-based. The note with it: Haemophilus influenzae. In outline: as §1
Series [16] concerns HI281 H. influenzae. The series is described as follows: broth dilution MIC, H. influenzae HI281. Type of series: cell-based. To be noted: Haemophilus influenzae. The procedure, abridged: as §1
For series [17], the system named is EC107 E. coli ATCC25922. The series is described as follows: broth dilution MIC, E. coli EC107. The format is cell-based. The note with it: Escherichia coli, read-out: MIC. The procedure, abridged:
as §1

In series [18] the test system is EC878 E. coli tolC. The series is described as follows: broth dilution MIC, E. coli EC878. Type of series: cell-based. The note with it: Escherichia coli. In outline: as §1
The subject of series [19] is EC882 E. coli imp. The series is described as follows: broth dilution MIC, E. coli EC882. The format is cell-based. To be noted: Escherichia coli. In outline: as §1
The test system of series [20] is BS1723 B. subtilis BS168 WT wild type. Put plainly: broth dilution MIC, B. subtilis BS1723. The format is cell-based. The note with it: Bacillus subtilis, BS1723 B. subtilis BS168 WT wild type; read-out: MIC. In outline:
as §1

Series [21] relates to BS1725 B. subtilis ermC. Put plainly: broth dilution MIC, B. subtilis BS1725. Type of series: cell-based. To be noted: Bacillus subtilis. In outline:
as §1

Series [22] deals with S. aureus (Newman, clinical isolate). The series is described as follows: MIC, S. aureus Newman. The format is cell-based. The note with it: Staphylococcus aureus, S. aureus (Neuman, clinical isolate), round 2. In outline: as §1
Series [23] has as its system E. coli (MC4100). Put plainly: MIC, E. coli MC4100. Type of series: cell-based. The note with it: Escherichia coli, round 2, read-out: MIC. In outline:
as §1

Series [24] relates to E. coli strains. Put plainly: MIC against E. coli strains (Table M7). The format is cell-based. The note with it: Escherichia coli, ATCC25922, E. coli ATCC 25922. In outline:
as §1

Series [25] concerns S. aureus strains. Put plainly: MIC against S. aureus strains (Table M7). The format is cell-based. The note with it: for MIC: Staphylococcus aureus. The procedure, abridged: as §1
The subject of series [26] is S. pneumoniae strains. Put plainly: MIC against S. pneumoniae strains (Tables M7, M8). To be noted: Streptococcus pneumoniae. Type of series: cell-based. The source says: CLSI standard procedures for broth dilution MIC determination were used. […] These genotypes can be constitutive or inducible.
The test system of series [27] is E. faecalis strains. Put plainly: MIC against E. faecalis strains (Table M8). Type of series: cell-based.
The test system of series [28] is K. pneumoniae strains. Put plainly: MIC against K. pneumoniae strains (Table M8). Type of series: cell-based. The note with it: Klebsiella pneumoniae, K. pneumoniae 10031.
The subject of series [29] is H. influenzae strains. The series is described as follows: MIC against H. influenzae strains (Table M8). Type of series: cell-based. To be noted: Haemophilus influenzae. In outline: as §1

On to `CC[C@H]1OC(=O)CC(=O)[C@H](C)[C@@H](O[C@@H]2OC(C)CC(N(C)C)C2OC(=O)OC)[C@](C)(OC)C[C@@H](C)CN[C@H](C)[C@H]2N(CCCCN=[N+]=[N-])C(=O)O[C@]12C` (some centres unmarked), for which the ring closure, yield of all isomers in series [1] (from CC[C@@H](O)[C@@]1(C)OC(=O)N(CCCCN=[N+]=[N-])[C@@H]1[C@@H](C)NC[C@H](C)C[C@@](C)(OC)[C@H](O[C@@H]1OC(C)CC(N(C)C)C1OC(=O)OC)[C@@H](C)C(=O)CC(=O)OC(C)(C)C, benzene, 9.08 mM, 80.0 °C, 12.0 h) was determined as 84%.
As for `CC[C@H]1OC(=O)[C@H](C)C(=O)[C@H](C)[C@@H](O[C@@H]2OC(C)CC(N(C)C)C2OC(=O)OC)[C@](C)(OC)C[C@@H](C)CN[C@H](C)[C@H]2N(CCCCN=[N+]=[N-])C(=O)O[C@]12C` (some centres unmarked), the ring closure, yield of all isomers in [1] (from CC[C@@H](O)[C@@]1(C)OC(=O)N(CCCCN=[N+]=[N-])[C@@H]1[C@@H](C)NC[C@H](C)C[C@@](C)(OC)[C@H](O[C@@H]1OC(C)CC(N(C)C)C1OC(=O)OC)[C@@H](C)C1=C(C)C(=O)OC(C)(C)O1, toluene, 3.97 mM, 111.0 °C, 40.0 h) was determined as 92%.
Regarding `CC[C@H]1OC(=O)[C@H](C)[C@@H](O[C@H]2C[C@@](C)(OC)[C@@H](O)[C@H](C)O2)[C@H](C)[C@@H](O[C@@H]2O[C@H](C)C[C@H](N(C)C)[C@H]2O)[C@](C)(O)C[C@@H](C)CN(C)[C@H](C)[C@@H](O)[C@]1(C)O` [Azithromycin, reference compound], the MIC in series [2] was 1 to 2 µg/mL (≈ 1.34 to 2.67 µM); in [3], above 32 µg/mL; in series [4], above 32 µg/mL; in series [5] it was above 32 µg/mL; in series [6], above 32 µg/mL; in series [7], above 32 µg/mL. For the same compound, the MIC in series [8] is above 32 µg/mL; in series [9] it was 0.0625 µg/mL (≈ 0.0834 µM); in [10] it was 2 µg/mL (≈ 2.67 µM); in series [11], above 32 µg/mL; in series [12], above 32 µg/mL; in [13], above 32 µg/mL. The MIC in series [14] is above 32 µg/mL; in [15] it was 2 µg/mL (≈ 2.67 µM); in series [16], 4 µg/mL (≈ 5.34 µM); in series [17], 4 µg/mL (≈ 5.34 µM); in [18] it was 0.5 µg/mL (≈ 0.668 µM); in series [19], 0.0625 µg/mL (≈ 0.0834 µM). The MIC is 0.5 µg/mL (≈ 0.668 µM) in [20]; above 32 µg/mL in series [21] (BS1725 B. subtilis ermC (+ery)); above 32 µg/mL in [21] (BS1725 B. subtilis ermC (−ery)); 1 µg/mL (≈ 1.34 µM) in series [22]; 8 µg/mL (≈ 10.7 µM) in [23]; 8 µg/mL (≈ 10.7 µM) in series [24]. For the same compound, the MIC is 2 µg/mL (≈ 2.67 µM) in series [25] (ATCC29213, S. aureus ATCC 29213, read-out: MIC S. aureus (ATCC 29213)); above 32 µg/mL in series [25] (S. aureus 183, read-out: MIC S. aureus (183)); above 32 µg/mL in [25] (S. aureus 506, read-out: MIC S. aureus (506)); above 32 µg/mL in series [25] (S. aureus 1708, read-out: MIC S. aureus (1708)); above 32 µg/mL in series [25] (USA300, S. aureus USA300, read-out: MIC S. aureus (USA300)); 2 µg/mL (≈ 2.67 µM) in series [26] (S. pneumoniae 160, read-out: MIC S. pneumonae (160)). The MIC in [26] (S. pneumoniae 1509, read-out: MIC S. pneumoniae (1509)) is above 32 µg/mL; in [26] (S. pneumoniae 1533, read-out: MIC S. pneumoniae (1533)), above 32 µg/mL; in series [26] (S. pneumoniae 1537, read-out: MIC S. pneumoniae (1537)), above 32 µg/mL; in [27] (Enterococcus faecalis, E. faecalis 29212), 8 µg/mL (≈ 10.7 µM); in [28] it was 2 µg/mL (≈ 2.67 µM); in series [29] (H. influenzae 49247, read-out: MIC H. influenzae (49247)) it was 0.25 µg/mL (≈ 0.334 µM). Moreover, the MIC in series [29] (H. influenzae 49766, read-out: MIC H. influenzae (49766)) is 2 µg/mL (≈ 2.67 µM). The “MIC S. aureus (ATCC 29213)” value in series [25] (S. aureus ATCC 29213) worked out at 1 µg/mL (≈ 1.34 µM). The “MIC E. faecalis (29212)” value in [27] amounted to 16 µg/mL (≈ 21.4 µM).
